Source: the supplement of paper PMC10307832

Experiments:
Assay in all cases: relative viability (nuclei count vs DMSO), 5 days (fraction); higher = more cells survive
Doxorubicin + Alpelisib = compound: COc1cccc2c1C(=O)c1c(O)c3c(c(O)c1C2=O)C[C@@](O)(C(=O)CO)C[C@@H]3O[C@H]1C[C@H](N)[C@H](O)[C@H](C)O1 [Doxorubicin] + Cc1nc(NC(=O)N2CCC[C@H]2C(N)=O)sc1-c1ccnc(C(C)(C)C(F)(F)F)c1 [Alpelisib] (partner 2 µM)
How it was run: (§1)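 Relative viability was taken as the ratio of nuclei in treated wells to nuclei in vehicle wells. Lung cancer cell lines in 1536-well plates received compounds by pin tool one day after seeding, either one drug alone or a fixed anchor-drug dose plus five library-drug doses (not always all listed) in √10 steps. Nuclei were counted on 4× images after 5 days of treatment, and values are medians of duplicate plates.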

Doxorubicin + Vorinostat = compound: COc1cccc2c1C(=O)c1c(O)c3c(c(O)c1C2=O)C[C@@](O)(C(=O)CO)C[C@@H]3O[C@H]1C[C@H](N)[C@H](O)[C@H](C)O1 [Doxorubicin] + O=C(CCCCCCC(=O)Nc1ccccc1)NO [Vorinostat] (partner 1 µM)
How it was run: as §1

Doxorubicin + Linsitinib = compound: COc1cccc2c1C(=O)c1c(O)c3c(c(O)c1C2=O)C[C@@](O)(C(=O)CO)C[C@@H]3O[C@H]1C[C@H](N)[C@H](O)[C@H](C)O1 [Doxorubicin] + C[C@]1(O)C[C@@H](c2nc(-c3ccc4ccc(-c5ccccc5)nc4c3)c3c(N)nccn32)C1 [Linsitinib] (partner 1 µM)
How it was run: as §1

Doxorubicin + OSI-027 = compound: COc1cccc2c1C(=O)c1c(O)c3c(c(O)c1C2=O)C[C@@](O)(C(=O)CO)C[C@@H]3O[C@H]1C[C@H](N)[C@H](O)[C@H](C)O1 [Doxorubicin] + COc1cccc2cc(-c3nc([C@H]4CC[C@H](C(=O)O)CC4)n4ncnc(N)c34)[nH]c12 [OSI-027] (partner 0.5 µM)
How it was run: as §1

Cell Line | relative viability (Doxorubicin + Alpelisib; first compound 0.003162 µM) | relative viability (Doxorubicin + Alpelisib; first compound 0.01 µM) | relative viability (Doxorubicin + Alpelisib; first compound 0.03162 µM) | relative viability (Doxorubicin + Alpelisib; first compound 0.1 µM) | relative viability (Doxorubicin + Vorinostat; first compound 0.001 µM) | relative viability (Doxorubicin + Vorinostat; first compound 0.003162 µM) | relative viability (Doxorubicin + Vorinostat; first compound 0.01 µM) | relative viability (Doxorubicin + Vorinostat; first compound 0.03162 µM) | relative viability (Doxorubicin + Vorinostat; first compound 0.1 µM) | relative viability (Doxorubicin + Linsitinib; first compound 0.001 µM) | relative viability (Doxorubicin + Linsitinib; first compound 0.003162 µM) | relative viability (Doxorubicin + Linsitinib; first compound 0.01 µM) | relative viability (Doxorubicin + Linsitinib; first compound 0.03162 µM) | relative viability (Doxorubicin + Linsitinib; first compound 0.1 µM) | relative viability (Doxorubicin + OSI-027; first compound 0.003162 µM) | relative viability (Doxorubicin + OSI-027; first compound 0.01 µM) | relative viability (Doxorubicin + OSI-027; first compound 0.03162 µM) | relative viability (Doxorubicin + OSI-027; first compound 0.1 µM) | relative viability (Doxorubicin + Alpelisib; first compound 0.001 µM) | relative viability (Doxorubicin + OSI-027; first compound 0.001 µM)
NCI-H441 | 0.713 | 0.684 | 0.234 | 0.393 | 0.87 | 0.962 | 0.75 | 0.279 | 0.372 | 0.697 | 0.718 | 0.513 | 0.281 | 0.513 | 0.524 | 0.445 | 0.261 | 0.279 | – | –
NCI-H1993 | 0.627 | 0.696 | 0.627 | 0.619 | 0.0284 | 0.67 | 0.851 | 0.509 | 0.462 | 0.711 | 0.751 | 0.741 | 0.659 | 0.733 | 0.58 | 0.542 | 0.515 | 0.498 | 0.677 | 0.591
NCI-H1734 | 0.682 | 0.662 | 0.604 | 0.661 | 0.737 | 0.815 | 0.747 | 0.558 | 0.536 | 0.945 | 0.922 | 0.826 | 0.731 | 0.871 | 0.6 | 0.594 | 0.395 | 0.432 | 0.589 | 0.799
NCI-H1666 | 0.814 | 0.551 | 0.27 | 0.284 | – | 1.1 | 0.972 | 0.808 | 0.806 | 0.803 | 0.762 | 0.561 | 0.268 | 0.285 | 0.736 | 0.547 | 0.45 | 0.486 | 0.938 | 0.778
NCI-H647 | 1.08 | 0.98 | 0.288 | 0.163 | 0.546 | 0.671 | 0.387 | 0.132 | 0.189 | 0.977 | 1.17 | 0.952 | 0.441 | 0.435 | 0.805 | 0.771 | 0.498 | 0.215 | 1.15 | 0.695
LCLC-97TM1 | 0.219 | 0.269 | 0.24 | 0.285 | 0.785 | 0.909 | 0.73 | 0.707 | 0.703 | 0.205 | 0.185 | 0.177 | 0.151 | 0.159 | 0.684 | 0.558 | 0.573 | 0.529 | 0.228 | 0.516
LOU-NH91 | 0.707 | 0.701 | 0.589 | 0.398 | – | 0.892 | 0.853 | 0.615 | 0.331 | – | 0.826 | 0.953 | 0.73 | 0.7 | 0.748 | 0.803 | 0.681 | 0.69 | – | 0.569
RERF-LC-KJ | 0.885 | 0.893 | 0.675 | 0.719 | 0.672 | 0.721 | 0.632 | 0.469 | 0.487 | 0.816 | 0.858 | 0.873 | 0.943 | 0.887 | 0.556 | 0.544 | 0.302 | 0.261 | 0.815 | 0.643
NCI-H1437 | 1 | 0.94 | 0.611 | 0.257 | 0.784 | 0.891 | 0.812 | 0.627 | 0.585 | 1 | 1.13 | 0.965 | 0.591 | 0.28 | 0.916 | 0.842 | 0.698 | 0.351 | 1.03 | 0.828
NCI-H2087 | 1.15 | 1.19 | 0.984 | 0.862 | 0.327 | 1.08 | 0.746 | 0.75 | 0.677 | 0.789 | 0.912 | 1.14 | 0.892 | 0.98 | 0.702 | 0.414 | 0.403 | 0.269 | 1.2 | –
